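Abbreviation: GI50, concentration required for 50% inhibition of growth. TGI: total growth inhibition.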
How the values were obtained:
Assay in all cases: NCI tumour cell line growth inhibition, 384-well format
786-0 renal = system: 786-0 renal
A498 renal = system: A498 renal
A549 NSCLC = system: A549 NSCLC
ACHN renal = system: ACHN renal
BT-549 breast = system: BT-549 breast
CAKI-1 renal = system: CAKI-1 renal
CCRF-CEM leukemia = system: CCRF-CEM leukemia
COLO 205 colon = system: COLO 205 colon
DU-145 prostate = system: DU-145 prostate
EKVX NSCLC = system: EKVX NSCLC
HCC-2998 colon = system: HCC-2998 colon
HCT-116 colon = system: HCT-116 colon
HCT-15 colon = system: HCT-15 colon
HL-60(TB) leukemia = system: HL-60(TB) leukemia
HOP-62 NSCLC = system: HOP-62 NSCLC
HOP-92 NSCLC = system: HOP-92 NSCLC
HT29 colon = system: HT29 colon
IGROV1 ovarian = system: IGROV1 ovarian
K-562 leukemia = system: K-562 leukemia
KM12 colon = system: KM12 colon
MALME-3M melanoma = system: MALME-3M melanoma
MCF7 breast = system: MCF7 breast
MDA-MB-231 breast = system: MDA-MB-231 breast
MDA-MB-435 melanoma = system: MDA-MB-435 melanoma
MDA-MB-468 breast = system: MDA-MB-468 breast
MOLT-4 leukemia = system: MOLT-4 leukemia
NCI-H226 lung = system: NCI-H226 lung
NCI-H23 lung = system: NCI-H23 lung

## O=C(Cc1cccc(OC(F)(F)F)c1)Nc1ccc(CCCCc2nnc(NC(=O)Cc3ccccn3)s2)nn1
786-0 renal
  GI50: 0.0294 µM
  TGI: 0.248 µM
A498 renal
  GI50: 0.0303 µM
  TGI: 0.16 µM
A549 NSCLC
  GI50: 0.0172 µM
  TGI: 0.061 µM
ACHN renal
  GI50: 2.52 µM
  TGI: > 71 µM
BT-549 breast
  GI50: 2.26 µM
  TGI: 11.2 µM
CAKI-1 renal
  GI50: 0.193 µM
  TGI: 18 µM
CCRF-CEM leukemia
  GI50: 0.375 µM
  TGI: > 100 µM
COLO 205 colon
  GI50: 36.2 µM
  TGI: > 100 µM
DU-145 prostate
  GI50: 31.4 µM
  TGI: > 100 µM
EKVX NSCLC
  GI50: 2.74 µM
  TGI: > 100 µM
HCC-2998 colon
  TGI: > 100 µM
HCT-116 colon
  GI50: 0.162 µM
  TGI: > 33.4 µM
HCT-15 colon
  GI50: > 72.6 µM
  TGI: > 100 µM
HL-60(TB) leukemia
  GI50: 0.687 µM
  TGI: > 100 µM
HOP-62 NSCLC
  GI50: 0.0537 µM
  TGI: 0.335 µM
HOP-92 NSCLC
  GI50: 6.95 µM
  TGI: 32.4 µM
HT29 colon
  GI50: > 100 µM
  TGI: > 100 µM
IGROV1 ovarian
  GI50: > 31.6 µM
  TGI: > 31.6 µM
K-562 leukemia
  GI50: 8.95 µM
  TGI: > 100 µM
KM12 colon
  GI50: 0.068 µM
  TGI: > 100 µM
MALME-3M melanoma
  GI50: 23.1 µM
  TGI: > 56.7 µM
MCF7 breast
  GI50: 6.1 µM
  TGI: > 100 µM
MDA-MB-231 breast
  GI50: 0.0339 µM
  TGI: 18.8 µM
MDA-MB-435 melanoma
  GI50: > 100 µM
  TGI: > 100 µM
MDA-MB-468 breast
  GI50: 8.47 µM
  TGI: 93.3 µM
MOLT-4 leukemia
  GI50: 2.04 µM
  TGI: > 100 µM
NCI-H226 lung
  GI50: 0.282 µM
  TGI: 0.983 µM
NCI-H23 lung
  GI50: 4.78 µM

— PubChem BioAssay (NCI)
